Data published in patent publication US6469028B1, “Synthesis and use of retinoid compounds having negative hormone and/or anatgonist activities” (Allergan, Inc., priority 1995, dated 2002).

How the values were obtained:
Assay in all cases: Holoreceptor transactivation assay
Format in all cases: cell-based
RXRα = biological target: T1, RXRα (Homo sapiens, UniProt P19793); conditions: relative to all trans retinoic acid; read-out: Transactivation Assay Efficacy (% of RA activity) RXRα
T1 construct: expressed in transfected cells; host or cells: CV1 cells
T1 sequence (P19793 1-462): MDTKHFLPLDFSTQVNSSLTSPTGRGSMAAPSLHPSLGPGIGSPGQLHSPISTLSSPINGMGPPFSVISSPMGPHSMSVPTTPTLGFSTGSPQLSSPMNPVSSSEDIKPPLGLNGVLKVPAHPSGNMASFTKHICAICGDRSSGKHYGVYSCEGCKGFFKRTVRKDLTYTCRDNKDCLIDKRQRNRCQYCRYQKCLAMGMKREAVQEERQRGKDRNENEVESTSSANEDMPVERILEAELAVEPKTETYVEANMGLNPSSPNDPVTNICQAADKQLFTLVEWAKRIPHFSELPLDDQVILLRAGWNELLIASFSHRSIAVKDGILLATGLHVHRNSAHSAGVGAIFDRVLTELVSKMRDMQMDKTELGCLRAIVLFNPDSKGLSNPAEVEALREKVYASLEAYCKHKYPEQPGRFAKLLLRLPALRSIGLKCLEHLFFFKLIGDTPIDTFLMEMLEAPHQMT
Excerpt: (§1) A holoreceptor transactivation assay and a ligand binding assay which measure the antagonist/agonist like activity of the compounds of the invention, or their ability to bind to the several retinoid receptor subtypes, respectively, are described in published PCT Application No. WO93/11755 (particularly on pages 30-33 and 37-41) published on Jun. 24, 1993, the specification of which is also incorporated herein by reference. A description of the holoreceptor transactivation assay is also provided below.
(§2) CV1 cells (5,000 cells/well) were transfected with an RAR reporter plasmid MTV-TREp-LUC (50 ng) along with one of the RAR expression vectors (10 ng) in an automated 96-well format by the calcium phosphate procedure of Heyman et al. Cell 68: 397-406. For RXR-α and RXR-γ transactivation assays, an RXR-responsive reporter plasmid CRBPII-tk-LUC (50 ng) along with the appropriate RXR expression vectors (10 ng) was used substantially as described by Heyman et al. above, and Allegretto et al. J. Biol. Chem. 268: 26625-26633. For RXR-β transactivation assays, an RXR-responsive reporter plasmid CPRE-tk-LUC ([…]) along with RXR-β expression vector ([…]) was used as described in above. These reporters contain DRI elements from human CRBPII and certain DRI elements from promotor, respectively (see Mangelsdorf et al. The Retinoids: Biology Chemistry and Medicine, pp. 319-349, Raven Press Ltd., New York and Heyman et al., cited above). A β-galactosidase (50 ng) expression vector was used as an internal control in the transfections to normalize for variations in transfection efficiency. The cells were transfected in triplicate for 6 hours, followed by incubation with retinoids for 36 hours, and the extracts were assayed for luciferase and […] activities. The detailed experimental procedure for holoreceptor transactivations has been described in Heyman et al. above, and Allegretto et al. cited above. The results obtained in this assay are expressed in EC50 numbers, as they are also in the chimeric receptor transactivation assay. The Heyman et al. Cell 68: 397-406, Allegretto et al. J. Biol. Chem. 268: 26625-26633, and Mangelsdorf et al. The Retinoids: Biology, Chemistry, and Medicine, pp. 319-349, Raven Press Ltd., New York, are expressly incorporated herein by reference. The results of ligand binding assay are expressed in Kd numbers. (See Cheng et al. Biochemical Pharmacology 22: 3099-3108, expressly incorporated herein by reference.)

RXRβ = conditions: relative to all trans retinoic acid
Excerpt: as §1, §2

RXRγ = biological target: T2, RXRγ (Mus musculus, UniProt P28705); conditions: relative to all trans retinoic acid; read-out: Transactivation Assay Efficacy (% of RA activity) RXRγ
T2 construct: expressed in transfected cells; host or cells: CV1 cells
T2 sequence (P28705 1-463): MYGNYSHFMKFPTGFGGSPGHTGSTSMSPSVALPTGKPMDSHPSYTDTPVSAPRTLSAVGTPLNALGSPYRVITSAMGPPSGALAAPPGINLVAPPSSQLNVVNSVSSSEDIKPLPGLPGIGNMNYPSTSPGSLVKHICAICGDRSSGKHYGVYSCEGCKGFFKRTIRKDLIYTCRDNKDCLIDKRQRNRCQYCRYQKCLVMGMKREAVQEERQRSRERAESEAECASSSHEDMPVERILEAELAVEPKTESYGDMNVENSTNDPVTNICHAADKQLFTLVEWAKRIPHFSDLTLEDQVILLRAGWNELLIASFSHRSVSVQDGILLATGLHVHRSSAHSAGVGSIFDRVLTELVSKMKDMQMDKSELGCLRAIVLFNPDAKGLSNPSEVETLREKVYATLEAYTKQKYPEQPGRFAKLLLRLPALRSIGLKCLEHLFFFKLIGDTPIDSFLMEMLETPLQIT
Excerpt: as §1, §2

RARβ = biological target: T3, RARβ (Homo sapiens, UniProt P10826); parameters: expressed in transfected cells; host or cells: CV1 cells; conditions: relative to all trans retinoic acid; read-out: Transactivation Assay Efficacy (% of RA activity) RARβ
T3 sequence (P10826 1-448 isoform P10826-2): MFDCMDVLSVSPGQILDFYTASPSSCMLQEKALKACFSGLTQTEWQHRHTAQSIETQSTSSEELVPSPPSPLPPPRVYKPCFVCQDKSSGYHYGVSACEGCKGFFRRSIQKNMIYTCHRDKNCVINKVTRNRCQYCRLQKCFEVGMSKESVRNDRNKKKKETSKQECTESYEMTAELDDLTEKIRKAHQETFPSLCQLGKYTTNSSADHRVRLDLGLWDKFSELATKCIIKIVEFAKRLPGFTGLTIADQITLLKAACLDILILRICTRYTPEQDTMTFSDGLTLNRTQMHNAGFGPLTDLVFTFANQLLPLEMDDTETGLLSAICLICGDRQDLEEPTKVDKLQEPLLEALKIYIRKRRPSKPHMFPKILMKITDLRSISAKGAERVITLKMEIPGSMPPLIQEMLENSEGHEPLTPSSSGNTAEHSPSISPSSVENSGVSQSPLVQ
Excerpt: as §1, §2
A compound should not cause significant activation of a reporter gene through a given receptor subtype (RAR-α, RAR-β or RAR-γ) in the holoreceptor transactivation assay, in order to qualify as an RAR antagonist with utility in the present invention.

Emax (RXRα) [%] | Emax (RXRγ) [%] | Emax (RARβ) [%] | SMILES | Transactivation Assay Efficacy (% of RA activity) RXRβ (RXRβ)
2 | 3 | 6 | CC1(C)CC=C(c2cccnc2)c2cc(C#Cc3ccc(C(=O)O)cc3)ccc21 [Compound 26, 4-[(5,6-Dihydro-5,5-dimethyl-8-(3-pyridyl)-2-naphthalenyl)ethynyl]benzoic acid] | 0.00 % of RA activity
2 | 3 | 10 | CC1(C)CC=C(c2cccc(O)c2)c2cc(C#Cc3ccc(C(=O)O)cc3)ccc21 [Compound 28, 4-[(5,6-Dihydro5,5-dimethyl-8-(3-hydroxyphenyl)-2-naphthalenyl)ethynyl]benzoic acid] | 0.00 % of RA activity
0 | 3 | 5 | Cc1cnc(C2=CCC(C)(C)c3ccc(C#Cc4ccc(C(=O)O)cc4)cc32)s1 [Compound 30, 4-[(5,6-Dihydro-5,5-dimethyl-8-(5-methylthiazol-2-yl)-2-naphthalenyl)ethynyl]benzoic acid] | 9.00 % of RA activity
1 | 2 | 0 | COc1ccc(C2=CCC(C)(C)c3ccc(C#Cc4ccc(C(=O)O)cc4)cc32)cc1 [Compound 22, 4-[(5,6-Dihydro-5,5-dimethyl-8-(4-methoxyphenyl)-2-naphthalenyl)ethynyl]benzoic acid] | 0.00 % of RA activity
0 | 2 | 6 | CC1(C)CC=C(c2ccc(O)cc2)c2cc(C#Cc3ccc(C(=O)O)cc3)ccc21 [Compound 29, 4-[(5,6-Dihydro-5,5-dimethyl-8-(4-hydroxyphenyl)-2-naphthalenyl)ethynyl]benzoic acid] | 6.00 % of RA activity
1 | 6 | 14 | Cc1csc(C2=CCC(C)(C)c3ccc(C#Cc4ccc(C(=O)O)cc4)cc32)n1 [Compound 31, 4-[(5,6-Dihydro-5,5-dimethyl-8-(4-methylthiazol-2-yl)-2-naphthalenyl)ethynyl]benzoic acid] | 8.00 % of RA activity
1 | 2 | 2 | Cc1nc(C2=CCC(C)(C)c3ccc(C#Cc4ccc(C(=O)O)cc4)cc32)sc1C [Compound 32] | 0.00 % of RA activity
5 | 3 | 3 | CC1(C)CC=C(c2ccc(Cl)cc2)c2cc(C#Cc3ccc(C(=O)O)cc3)ccc21 [Compound 25, 4-[(5,6-Dihydro-5,5-dimethyl-8-(4-chlorophenyl)-2-naphthalenyl)ethynyl]benzoic acid] | 0.00 % of RA activity
2 | 1 | 1 | Cc1ccc(C2=CCC(C)(C)c3ccc(C#Cc4ccc(C(=O)O)cc4)cc32)cn1 [Compound 18, 4-[(5,6-Dihydro-5,5-dimethyl-8-(2-methyl-5-pyridyl)-2-naphthalenyl)ethynyl]benzoic acid] | 10.00 % of RA activity
1 | 3 | 2 | CC(C)(C)c1ccc(C2=CCC(C)(C)c3ccc(C#Cc4ccc(C(=O)O)cc4)cc32)cc1 [Compound 61, 4-[(5,6-Dihydro-5,5-dimethyl-8-(4-(1,1-dimethylethyl)phenyl)-2-naphthalenyl)ethynyl]benzoic acid] | 0.00 % of RA activity
3 | 3 | 2 | CCc1ccc(C2=CCC(C)(C)c3ccc(C#Cc4ccc(C(=O)O)cc4)cc32)cc1 [Compound 21, 4-[(5,6-Dihydro-5,5-dimethyl-8-(4-ethylphenyl)-2-naphthalenyl)ethynyl]benzoic acid] | 0.00 % of RA activity
1 | 3 | 4 | Cc1ccc(C2=CCC(C)(C)c3cc(C(=O)C=Cc4ccc(C(=O)O)cc4)ccc32)cc1 [Compound 101, 4-[3-oxo-3-(7,8-dihydro-5-(4-methylphenyl)-8,8-dimethyl-2-naphthalenyl)-1-propenyl]-benzoic acid] | 0.00 % of RA activity
